The supplement of paper PMC10307832

Legend:
Experiment in all cases: relative viability (nuclei count vs DMSO), 5 days (fraction); higher = more cells survive
Crizotinib + Alpelisib = compound: C[C@@H](Oc1cc(-c2cnn(C3CCNCC3)c2)cnc1N)c1c(Cl)ccc(F)c1Cl [Crizotinib] + Cc1nc(NC(=O)N2CCC[C@H]2C(N)=O)sc1-c1ccnc(C(C)(C)C(F)(F)F)c1 [Alpelisib] (partner 2 µM)
Outline: (§1)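 Relative viability equals treated-well nuclei counts divided by vehicle-well nuclei counts. Counts came from 4× images of lung cancer cell lines grown in 1536-well plates for 5 days after pin-tool dosing on the day after seeding. Dosing used one drug alone or a fixed anchor-drug dose plus five library-drug doses (not always all listed) in √10 steps, and values are medians of duplicate plates.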

Crizotinib + AZD7762 = compound: C[C@@H](Oc1cc(-c2cnn(C3CCNCC3)c2)cnc1N)c1c(Cl)ccc(F)c1Cl [Crizotinib] + NC(=O)Nc1cc(-c2cccc(F)c2)sc1C(=O)N[C@H]1CCCNC1 [AZD7762] (partner 0.2 µM)
Outline: as §1

Olaparib + Trametinib = compound: O=C(c1cc(Cc2n[nH]c(=O)c3ccccc23)ccc1F)N1CCN(C(=O)C2CC2)CC1 [Olaparib] + CC(=O)Nc1cccc(-n2c(=O)n(C3CC3)c(=O)c3c(Nc4ccc(I)cc4F)n(C)c(=O)c(C)c32)c1 [Trametinib] (partner 0.02 µM)
Outline: as §1

Olaparib + Luminespib = compound: O=C(c1cc(Cc2n[nH]c(=O)c3ccccc23)ccc1F)N1CCN(C(=O)C2CC2)CC1 [Olaparib] + CCNC(=O)c1noc(-c2cc(C(C)C)c(O)cc2O)c1-c1ccc(CN2CCOCC2)cc1 [Luminespib] (partner 0.01 µM)
Outline: as §1

Cell Line	relative viability (Crizotinib + Alpelisib; first compound 0.01 µM)	relative viability (Crizotinib + Alpelisib; first compound 0.03162 µM)	relative viability (Crizotinib + Alpelisib; first compound 0.1 µM)	relative viability (Crizotinib + Alpelisib; first compound 0.3162 µM)	relative viability (Crizotinib + Alpelisib; first compound 1 µM)	relative viability (Crizotinib + AZD7762; first compound 0.01 µM)	relative viability (Crizotinib + AZD7762; first compound 0.03162 µM)	relative viability (Crizotinib + AZD7762; first compound 0.1 µM)	relative viability (Crizotinib + AZD7762; first compound 0.3162 µM)	relative viability (Crizotinib + AZD7762; first compound 1 µM)	relative viability (Olaparib + Trametinib; first compound 0.08 µM)	relative viability (Olaparib + Trametinib; first compound 0.253 µM)	relative viability (Olaparib + Trametinib; first compound 2.53 µM)	relative viability (Olaparib + Trametinib; first compound 8 µM)	relative viability (Olaparib + Luminespib; first compound 0.08 µM)	relative viability (Olaparib + Luminespib; first compound 0.253 µM)	relative viability (Olaparib + Luminespib; first compound 2.53 µM)	relative viability (Olaparib + Luminespib; first compound 8 µM)
HCC-78	0.278	0.292	0.299	0.279	0.223	0.657	0.686	0.618	0.572	0.487	0.861	0.647	0.716	0.707				
HCC-366	0.547	0.485	0.382		0.343	0.239	0.324	0.309		0.289	0.311	0.311	0.268	0.214				
HCC-827	0.896	0.944	0.938	0.859		0.236	0.201	0.184	0.174	0.217	0.52	0.508	0.498	0.478	0.544	0.585	0.629	0.368
HOP-62	0.93	1	0.731	0.964	1.08	0.447	0.508	0.622	0.565	0.633	0.358	0.359	0.393	0.333	1	0.809	0.744	0.476
IA-LM	0.726	0.814	0.805	0.737	0.675													
NCI-H520	0.726	0.92	0.891	1.07	0.962						0.794	0.527	0.506	0.311	0.205	0.277	0.255	0.23
NCI-H522						0.852	0.792	0.752	0.908	0.846	0.679	0.733	0.711	0.715	1.23	1.09	0.781	0.824
NCI-H661	0.665	0.684	0.615	0.699	0.725						0.602	0.5	0.569	0.525	1.02	0.869	0.878	0.619
NCI-H1299	1.12	1.03	0.999	1.13	1													
NCI-H1563	0.85	0.838	1.03	0.938	0.782										1.21	0.475	0.538	0.481
NCI-H1623															0.492	0.484	0.384	0.331
NCI-H1648							0.513	0.684	0.467	0.723	0.455	0.513		0.418				
NCI-H1650											0.6	0.503	0.62	0.565	0.245	0.188	0.2	0.195
NCI-H1703	0.285	0.299	0.329	0.364	0.366	0.157	0.172	0.126	0.116	0.125								
NCI-H2009	1.16	1.16		1.12	1.09						0.275	0.283	0.315	0.267	1.13	0.966	0.893	0.701
NCI-H2023	0.523	0.611	0.637	0.503	0.499						0.59	0.514	0.525	0.489	0.647	0.724	0.629	0.379
NCI-H2228	0.666	0.799	0.769	0.451	0.288						0.609	0.344	0.495	0.521	0.146	0.132	0.145	0.117
NCI-H2342						0.465	0.504	0.483	0.441	0.575	0.8	0.871	0.802	0.742	0.685	0.561	0.712	0.649
SK-LU-1	0.989	1.04	1.11	1.17							0.515	0.402	0.496	0.417	0.228	0.178	0.194	0.199
SK-MES-1	0.775	0.929	0.79	0.803							0.577	0.539	0.608	0.616	0.841	0.774	0.727	0.604
SW 900						0.54	0.627	0.616	0.663	0.617	0.867	0.758	0.85	0.815	0.171	0.17	0.184	0.197
SW 1573	0.663	0.896	0.638	0.732	0.779						0.591	0.565	0.515	0.473	0.376	0.221	0.204	0.158
UMC-11	0.961	0.921	0.968	0.956	0.974						0.651	0.644	0.59	0.376	1.06	0.855	0.683	0.414
